Assay results from ChEMBL document CHEMBL1201862, “PubChem BioAssay data set” (2004).
One block for each compound: values may come before it. The source made the active and inactive calls.

Assays:
Protein skinhead-1 = target: T1, Protein skinhead-1 (Caenorhabditis elegans, UniProt P34707); format: functional
T1 sequence (P34707 whole entry): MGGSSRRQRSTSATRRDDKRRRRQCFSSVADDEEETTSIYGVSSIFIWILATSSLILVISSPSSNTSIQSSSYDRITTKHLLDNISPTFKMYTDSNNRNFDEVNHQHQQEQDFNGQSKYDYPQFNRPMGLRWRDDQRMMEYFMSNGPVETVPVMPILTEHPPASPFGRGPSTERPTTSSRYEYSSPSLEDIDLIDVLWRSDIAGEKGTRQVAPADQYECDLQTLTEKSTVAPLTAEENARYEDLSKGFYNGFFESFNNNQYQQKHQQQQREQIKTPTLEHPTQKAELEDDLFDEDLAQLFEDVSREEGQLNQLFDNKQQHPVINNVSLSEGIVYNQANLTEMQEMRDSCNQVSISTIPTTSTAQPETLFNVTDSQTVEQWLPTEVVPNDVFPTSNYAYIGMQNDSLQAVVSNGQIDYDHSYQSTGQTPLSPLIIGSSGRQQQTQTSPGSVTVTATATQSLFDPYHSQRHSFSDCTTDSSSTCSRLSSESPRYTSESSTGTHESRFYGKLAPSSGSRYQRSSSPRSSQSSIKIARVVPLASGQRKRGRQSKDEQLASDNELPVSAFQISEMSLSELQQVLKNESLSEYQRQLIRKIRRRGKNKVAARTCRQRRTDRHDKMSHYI

Cytochrome P450 2D6 = Cytochrome P450 2D6 (Homo sapiens, UniProt P10635);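 also: CYP2D6 member of a cytochrome P450 panel assay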
[1] = NIH-3T3 fibroblast cytotoxicity, dose response, cytotoxicity control, cell-based, fluorescence, Alamar Blue, secondary assay (AID 2327); format: functional;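 also: NIH-3T3 mouse fibroblasts cultured with fluconazole at 8 µg/mL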
[2] = C. albicans growth with fluconazole, confirmation, fluorescence, retest (AID 2467); format: functional, cell-based
INS1 = test: beta cell apoptosis inhibitors, cytokine rescue, dose response, luminescence, retest (AID 449756); format: functional, cell-based; settings: Rattus norvegicus;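 also: cell death triggered by IL-1 beta plus TNF-alpha plus IFN-gamma mixture; protective hits raise ATP signal compared with cytokine alone wells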
[3] = inhibitors of clade B AD8 Env fusion, dose response, cell-based, cherry-pick (AID 652062); format: functional;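 also: luciferase signal from cell-cell fusion driven by HIV-1 clade B AD8 Env; potency is for inhibitors of fusion seen as a drop in luminescence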
Cytochrome P450 3A4 = Cytochrome P450 3A4 (Homo sapiens, UniProt P08684);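 also: CYP3A4 tested as one member of a cytochrome P450 panel screen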
Cytochrome P450 1A2 = target: T2, Cytochrome P450 1A2 (Homo sapiens, UniProt P05177);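 also: PubChem cytochrome P450 panel assay, CYP1A2 panel member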
T2 sequence (P05177 whole entry): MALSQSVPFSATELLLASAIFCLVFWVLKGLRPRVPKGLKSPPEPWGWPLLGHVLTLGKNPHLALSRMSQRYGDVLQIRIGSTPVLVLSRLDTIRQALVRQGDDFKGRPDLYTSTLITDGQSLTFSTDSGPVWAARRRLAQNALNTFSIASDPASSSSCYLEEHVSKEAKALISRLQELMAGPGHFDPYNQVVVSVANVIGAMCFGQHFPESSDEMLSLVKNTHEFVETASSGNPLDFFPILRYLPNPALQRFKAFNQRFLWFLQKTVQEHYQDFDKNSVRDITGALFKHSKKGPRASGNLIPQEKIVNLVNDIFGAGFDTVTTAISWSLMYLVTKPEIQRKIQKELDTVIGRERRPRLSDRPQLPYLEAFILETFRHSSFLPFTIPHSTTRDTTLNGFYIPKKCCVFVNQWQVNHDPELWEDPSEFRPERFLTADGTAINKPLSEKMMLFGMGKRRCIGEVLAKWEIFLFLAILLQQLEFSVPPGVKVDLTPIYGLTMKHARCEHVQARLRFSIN

[4] = target: T3, Zinc finger protein mex-5 (Caenorhabditis elegans, UniProt Q9XUB2); test: MEX-5/TCR-2 RNA interaction inhibitors, dose response, biochemical, C. elegans, fluorescence polarization (AID 1960)
T3 sequence (Q9XUB2 whole entry): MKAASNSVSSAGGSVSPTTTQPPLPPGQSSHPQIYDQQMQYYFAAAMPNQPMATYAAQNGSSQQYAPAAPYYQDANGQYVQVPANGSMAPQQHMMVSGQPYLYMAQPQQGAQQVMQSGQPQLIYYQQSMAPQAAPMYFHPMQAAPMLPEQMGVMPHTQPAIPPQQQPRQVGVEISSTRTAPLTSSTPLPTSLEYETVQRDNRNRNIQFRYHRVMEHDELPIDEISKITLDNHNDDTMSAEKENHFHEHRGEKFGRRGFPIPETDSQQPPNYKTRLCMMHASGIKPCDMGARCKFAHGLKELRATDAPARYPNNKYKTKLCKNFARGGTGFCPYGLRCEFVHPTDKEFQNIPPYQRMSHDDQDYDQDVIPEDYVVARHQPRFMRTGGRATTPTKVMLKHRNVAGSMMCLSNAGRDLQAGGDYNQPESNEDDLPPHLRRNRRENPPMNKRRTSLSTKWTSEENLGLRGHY

[5] = target: T4, RNA-binding protein pos-1 (Caenorhabditis elegans, UniProt G5EF15); test: inhibitors of POS-1/mex-3 RNA binding, dose response, biochemical, fluorescence polarization (AID 1964);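 also: purified POS-1 fused to maltose binding protein made in E. coli; potency of compounds blocking POS-1 binding to fluorescent RNA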
T4 sequence (G5EF15 whole entry): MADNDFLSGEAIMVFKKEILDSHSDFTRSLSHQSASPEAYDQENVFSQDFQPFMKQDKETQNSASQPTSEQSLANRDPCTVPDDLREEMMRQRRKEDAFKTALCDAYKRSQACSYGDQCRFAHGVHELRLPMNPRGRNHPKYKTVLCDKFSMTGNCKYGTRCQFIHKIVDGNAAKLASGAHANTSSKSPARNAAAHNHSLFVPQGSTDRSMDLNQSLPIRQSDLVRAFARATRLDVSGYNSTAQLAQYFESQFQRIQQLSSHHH

H9c2 = test: cells; format: functional, cell-based; settings: Rattus norvegicus, H9c2, Myocardium;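 also: confirmatory concentration-response retest of ultra-high-throughput screening hits for modulation of myocardial damage; cell death induced by hydrogen peroxide oxidative stress; compound pretreatment for 60 min then peroxide exposure for 2 h; potency is for protecting the cells against peroxide damage rather than for killing them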
Cytochrome P450 2C9 = Cytochrome P450 2C9 (Homo sapiens, UniProt P11712)
Chain of Cytochrome P450 2C9 (P11712 whole entry): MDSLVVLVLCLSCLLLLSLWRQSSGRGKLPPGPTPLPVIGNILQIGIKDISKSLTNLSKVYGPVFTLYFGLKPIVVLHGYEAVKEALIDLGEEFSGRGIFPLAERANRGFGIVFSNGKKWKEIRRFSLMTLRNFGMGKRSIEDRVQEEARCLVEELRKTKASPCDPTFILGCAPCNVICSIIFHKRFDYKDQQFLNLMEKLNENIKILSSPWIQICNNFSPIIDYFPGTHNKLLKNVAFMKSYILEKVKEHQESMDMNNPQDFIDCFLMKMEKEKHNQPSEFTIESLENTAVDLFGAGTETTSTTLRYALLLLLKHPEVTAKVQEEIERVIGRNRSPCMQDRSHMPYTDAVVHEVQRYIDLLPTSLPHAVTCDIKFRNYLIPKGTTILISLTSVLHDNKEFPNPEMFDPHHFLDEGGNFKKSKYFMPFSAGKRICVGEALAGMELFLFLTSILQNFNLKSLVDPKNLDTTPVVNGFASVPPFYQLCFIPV

Chain of Cytochrome P450 3A4 (P08684 whole entry): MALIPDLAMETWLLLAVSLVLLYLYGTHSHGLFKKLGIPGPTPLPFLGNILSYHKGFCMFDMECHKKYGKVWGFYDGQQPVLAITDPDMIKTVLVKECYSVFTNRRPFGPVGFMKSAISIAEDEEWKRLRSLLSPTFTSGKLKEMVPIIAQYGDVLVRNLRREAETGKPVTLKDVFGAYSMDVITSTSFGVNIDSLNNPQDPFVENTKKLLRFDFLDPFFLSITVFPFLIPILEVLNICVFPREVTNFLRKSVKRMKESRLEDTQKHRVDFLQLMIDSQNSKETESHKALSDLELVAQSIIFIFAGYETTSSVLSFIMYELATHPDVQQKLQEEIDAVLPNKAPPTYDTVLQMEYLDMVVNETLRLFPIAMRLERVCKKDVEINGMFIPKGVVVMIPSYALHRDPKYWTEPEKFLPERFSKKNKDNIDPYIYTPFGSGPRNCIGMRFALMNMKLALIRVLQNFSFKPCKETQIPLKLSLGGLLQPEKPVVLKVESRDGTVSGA
Chain of Cytochrome P450 2D6 (P10635 whole entry): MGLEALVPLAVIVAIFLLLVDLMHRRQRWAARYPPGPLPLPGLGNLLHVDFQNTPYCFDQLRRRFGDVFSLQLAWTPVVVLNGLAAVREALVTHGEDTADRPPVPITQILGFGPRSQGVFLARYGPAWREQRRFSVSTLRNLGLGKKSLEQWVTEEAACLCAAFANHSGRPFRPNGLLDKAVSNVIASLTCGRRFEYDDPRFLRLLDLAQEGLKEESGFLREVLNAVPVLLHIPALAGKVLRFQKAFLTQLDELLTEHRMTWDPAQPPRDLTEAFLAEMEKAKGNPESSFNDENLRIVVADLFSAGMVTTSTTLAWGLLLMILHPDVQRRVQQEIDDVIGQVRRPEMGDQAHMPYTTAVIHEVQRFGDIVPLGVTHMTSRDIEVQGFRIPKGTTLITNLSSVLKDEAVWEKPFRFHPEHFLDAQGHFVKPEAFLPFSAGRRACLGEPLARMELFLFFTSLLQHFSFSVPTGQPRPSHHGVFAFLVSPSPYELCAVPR

Compound: O=[N+]([O-])c1ccc(COc2ccc(CN3CCCC3)cc2)cc1
IC50 (Protein skinhead-1): 3.75 µM (active)

Compound: COC(=O)/C(=C\c1ccc([N+](=O)[O-])o1)NC(=O)c1ccccc1
EC50 [1]: > 160 µM (inactive)
EC50 [2]: 0.53 µM (active)

Compound: O=C(c1cc(COc2cccc(C(F)(F)F)c2)on1)N1CCC(c2ccncc2)CC1
AC50 (INS1): 5.33 µM (active)
EC50 [1]: > 150 µM (inactive)
EC50 [2]: > 38 µM (not active)
AC50 [3]: 6.22 µM (active)

Compound: COc1ccc(C2C(C(=O)N3CCOCC3)CCC(=O)N2c2ccc(OC)cc2)cc1 (centres undefined)
AC50 (Cytochrome P450 3A4): 17.8 µM (inconclusive)
AC50 (Cytochrome P450 1A2): 0.0631 µM (inconclusive)

Compound: Cc1ccc2[nH]c(C)c(/C=C3/C(=N)N4N=C(CC(=O)N5CCOCC5)SC4=NC3=O)c2c1
EC50 [4]: > 300 µM (inconclusive)
EC50 [5]: 38.3 µM (active)
IC50 (Protein skinhead-1): > 100 µM (inactive)

Compound: Cc1nn2c(-c3cccc(NC(=O)c4ccco4)c3)nnc2c2ccccc12
IC50 (H9c2): > 79 µM (inactive)

Compound: Cc1noc(C)c1S(=O)(=O)N1CCCC(C(=O)NCCc2ccc(Cl)cc2)C1 (centres undefined)
IC50 (Protein skinhead-1): > 100 µM (inactive)

Compound: O=C(Nc1csc(Cl)c1)c1ccccc1
IC50 (Protein skinhead-1): > 100 µM (inactive)

Compound: COc1ccccc1OCC(=O)Nc1cccc(-c2nnc(-c3ccco3)o2)c1
IC50 (H9c2): > 79 µM (inactive)

Compound: O=S(=O)(Nc1nc2ccccc2s1)c1ccc(Br)s1
EC50 [1]: > 150 µM (inactive)
EC50 [2]: 1.94 µM (active)

Compound: Cc1[nH]c2ccccc2c1/C=C/c1cc[n+](C)cc1
EC50 [1]: 120 µM (inconclusive)
EC50 [2]: > 38 µM (not active)
AC50 (Cytochrome P450 2D6): 17.8 µM (inconclusive)

Compound: Cc1ccc(-c2csc(NC(=O)Cn3[nH]c(=O)c4ccccc4c3=O)n2)cc1
IC50 (H9c2): > 79 µM (inactive)

Compound: Cn1cccc1C(=O)N1CCC2(CCCN(C(=O)Nc3cccc(F)c3)C2)CC1
AC50 (Cytochrome P450 3A4): 10 µM (inconclusive)

Compound: O=C1CCC(C(=O)OCC(=O)N2N=C3/C(=C\c4ccccc4)CCCC3C2c2ccccc2)N1 (centres undefined)
IC50 (Protein skinhead-1): > 100 µM (inactive)

Compound: CN(C)Cc1ccccc1-c1cncnc1NCc1cccs1
AC50 (Cytochrome P450 3A4): 1.26 µM (inconclusive)

Compound: COc1cc(SC)ccc1C(=O)Nc1nccs1
IC50 (Protein skinhead-1): 53.6 µM (inactive)

Compound: CCn1ncc(C2=NOC(C(=O)Nc3ccc(C)cc3)C2)c1C (centres undefined)
AC50 [3]: 32.8 µM (active)

Compound: COC(=O)C1(CC(C)C)C=C2C(=C(c3ccccc3)C(=O)C2C)CN1 (centres undefined)
AC50 (Cytochrome P450 3A4): 25.1 µM (inconclusive)
AC50 (Cytochrome P450 1A2): 15.8 µM (inconclusive)

Compound: COc1ccc(CCNC(=O)c2c(O)c3ccccc3n(C)c2=O)cc1
EC50 [1]: 72.2 µM (active)
EC50 [2]: > 38 µM (not active)

Compound: CCCCCOC(=O)CSc1nnc(-c2ccccc2)c(O)n1
AC50 (Cytochrome P450 3A4): 22.4 µM (inconclusive)

Compound: O=C(NC12CC3CC(CC(C3)C1)C2)N1CCN(c2nc(-c3ccccc3)cs2)CC1
AC50 (Cytochrome P450 3A4): 11.2 µM (inconclusive)
AC50 (Cytochrome P450 1A2): 6.31 µM (inconclusive)

Continued, values first:

IC50 (Protein skinhead-1): 3.18 µM (active)
Compound: CC(C)c1ccc(C(=O)Nc2ccc(CN3CCOCC3)cc2)cc1

IC50 (Protein skinhead-1): > 100 µM (inactive)
AC50 (Cytochrome P450 2D6): 15.8 µM (inconclusive)
Compound: Cc1ccc(OCc2ccc(C(=O)Nc3nccs3)o2)cc1C

IC50 (Protein skinhead-1): > 100 µM (inactive)
Compound: Clc1ccc(-c2cn3cc(Br)ccc3n2)cc1Cl

AC50 (Cytochrome P450 3A4): 22.4 µM (inconclusive)
AC50 (Cytochrome P450 2C9): 14.1 µM (inconclusive)
AC50 (Cytochrome P450 2D6): 14.1 µM (inconclusive)
Compound: O=C1c2ccccc2NC(c2ccc3c(c2)OCO3)N1O (centres undefined)

IC50 (Protein skinhead-1): 58.1 µM (inactive)
Compound: CN(C)C(CNC(=O)CCc1nc2cc(Cl)ccc2n(Cc2ccccc2)c1=O)c1ccccc1 (centres undefined)

AC50 (Cytochrome P450 3A4): 5.01 µM (inconclusive)
AC50 (Cytochrome P450 2D6): 25.1 µM (inconclusive)
Compound: COc1ccc(CNc2nc(-c3ccc(N(C)C)cc3)nc3ccccc23)c(OC)c1

IC50 (Protein skinhead-1): 4.62 µM (active)
Compound: CCc1nc2c(OCc3ccc(C(F)(F)F)cc3)cccn2c1N(C)C(=O)c1ccncc1

IC50 (Protein skinhead-1): > 100 µM (inactive)
Compound: CC(C)C(CCNCc1ccccn1)c1ccc(Cl)cc1 (centres undefined)

AC50 (Cytochrome P450 3A4): 10 µM (inconclusive)
AC50 (Cytochrome P450 1A2): 14.1 µM (inconclusive)
Compound: CC1=CC(=O)N(c2cccc(C(F)(F)F)c2)C1c1ccc(Cl)cc1 (centres undefined)

IC50 (Protein skinhead-1): 17.1 µM (active)
Compound: COc1c(C(=O)Nc2nccs2)ccc2ccccc12
